Where only a bound is given, the exact number is not on record here.

The test has as its target T1, KCNT1 (KNa1.1, Slack) (Homo sapiens, UniProt Q5JUK3).
T1 construct: expressed in transfected cells; host or cells: HEK-TREX (tetracycline-inducible HEK cell line)
T1 sequence (Q5JUK3 1-1230): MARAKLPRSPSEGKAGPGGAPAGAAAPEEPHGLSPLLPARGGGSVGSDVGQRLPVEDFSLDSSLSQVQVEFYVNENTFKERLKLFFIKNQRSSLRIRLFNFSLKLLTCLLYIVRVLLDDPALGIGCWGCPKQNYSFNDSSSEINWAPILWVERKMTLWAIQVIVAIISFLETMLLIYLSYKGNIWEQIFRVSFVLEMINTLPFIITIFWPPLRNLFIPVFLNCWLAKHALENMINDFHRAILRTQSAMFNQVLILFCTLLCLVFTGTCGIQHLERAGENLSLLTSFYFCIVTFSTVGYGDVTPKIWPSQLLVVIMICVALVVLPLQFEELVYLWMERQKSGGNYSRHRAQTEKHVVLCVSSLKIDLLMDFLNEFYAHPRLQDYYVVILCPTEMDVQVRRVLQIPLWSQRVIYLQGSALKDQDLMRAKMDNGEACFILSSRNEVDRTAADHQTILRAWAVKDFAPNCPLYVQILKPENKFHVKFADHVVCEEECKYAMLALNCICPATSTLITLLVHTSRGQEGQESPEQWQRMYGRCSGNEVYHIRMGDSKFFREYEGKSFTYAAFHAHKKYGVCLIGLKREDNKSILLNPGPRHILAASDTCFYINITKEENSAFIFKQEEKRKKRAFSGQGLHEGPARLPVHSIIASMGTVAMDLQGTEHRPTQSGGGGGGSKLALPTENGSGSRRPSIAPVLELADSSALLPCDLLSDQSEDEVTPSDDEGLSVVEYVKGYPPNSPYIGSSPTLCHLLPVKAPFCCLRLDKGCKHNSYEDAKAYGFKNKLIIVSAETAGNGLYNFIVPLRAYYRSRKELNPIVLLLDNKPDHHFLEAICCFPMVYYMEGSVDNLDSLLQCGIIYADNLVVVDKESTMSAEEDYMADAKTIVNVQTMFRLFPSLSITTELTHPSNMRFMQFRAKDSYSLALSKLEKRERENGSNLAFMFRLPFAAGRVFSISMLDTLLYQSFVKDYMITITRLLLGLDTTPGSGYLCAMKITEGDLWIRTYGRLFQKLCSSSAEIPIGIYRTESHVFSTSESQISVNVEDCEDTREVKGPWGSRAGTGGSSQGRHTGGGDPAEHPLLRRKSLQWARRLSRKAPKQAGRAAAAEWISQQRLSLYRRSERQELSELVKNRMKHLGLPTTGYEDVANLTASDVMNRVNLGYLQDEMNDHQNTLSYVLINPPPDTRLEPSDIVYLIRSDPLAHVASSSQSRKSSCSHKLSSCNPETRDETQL
As to the kind of experiment: KCNT1 patch clamp assay (SyncroPatch 384PE automated patch clamp). It is filed as cell-based. As to conditions: tetracycline inducible HEK-TREX cell line; perforated patch; step from −80 mV to 0 mV; room temperature; read-out: KCNT1-WT IC50. In outline:
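Tetracycline-inducible HEK-TREX cells; perforated-patch (10 μM escin) population recordings at room temperature, holding −80 mV with 100 ms step to 0 mV.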
For the compound `CC[C@@H](NC(=O)c1cc(C(F)(F)F)nn1C)c1nc(-c2ccnc(C3CC3)c2)no1` [Compound 266, N-[(1R)-1-[3-(2-cyclopropyl-4-pyridyl)-1,2,4-oxadiazol-5-yl]propyl]-2-methyl-5-(trifluoromethyl)pyrazole-3-carboxamide], the half-maximal inhibitory concentration (IC50) was at most 1000 nM.
For `CO[C@H](C)[C@@H](NC(=O)c1cc(C(F)(F)F)nn1C)c1nc(-c2cccc(F)c2)no1` [Compound 139], the IC50 is at most 1000 nM.
Then `Cc1cccc(-c2noc(C(C)NC(=O)c3cnn(C(C)C)c3C)n2)c1` (stereo not drawn) [Compound 59], with at least 20000 nM.
Then `Cn1nc(C(F)(F)F)cc1C(=O)NC(CC(=O)NCCO)c1nc(-c2cccc(F)c2)no1` (single isomer, unassigned) [Compound 121], with at least 20000 nM.
Then `Cc1nn(C(C)C)cc1C(=O)N[C@@H](C)c1nc(-c2ccc(F)c(Cl)c2)no1` [Compound 88], with 1000 to 20000 nM; and `COC[C@H](NC(=O)c1cc(C(F)(F)F)nn1C)c1nc(-c2cccc(C)c2)no1` (single isomer, unassigned) [Compound 81], with at most 1000 nM; and `Cc1cc(C(=O)N[C@@H](C)c2nc(-c3ccnc(C4CC4)c3)no2)n(C)n1` [Compound 227, (S)—N-(1-(3-(2-cyclopropylpyridin-4-yl)-1,2,4-oxadiazol-5-yl)ethyl)-1,3-dimethyl-1H-pyrazole-5-carboxamide], with at most 1000 nM.
On to `C[C@H](NC(=O)c1cc(C(F)(F)F)nn1C)c1nc(-c2ccnc(OC3CC(F)(F)C3)c2)no1` [Compound 208, (S)—N-(1-(3-(2-(3,3-difluorocyclobutoxy)pyridin-4-yl)-1,2,4-oxadiazol-5-yl)ethyl)-1-methyl-3-(trifluoromethyl)-1H-pyrazole-5-carboxamide], for which the IC50 is at most 1000 nM.
Then `C[C@H](NC(=O)c1cc(C(F)F)nn1C1CC1)c1nc(-c2cccc(F)c2)no1` [Compound 132], with at most 1000 nM.
`C[C@@H](NC(=O)c1cc(C(F)(F)F)nn1C(F)F)c1nc(-c2cccc(Cl)c2)no1` (single isomer, unassigned) [Compound 82]: the IC50 was at most 1000 nM.
Then `C[C@H](NC(=O)c1cc(C(F)(F)F)nn1Cc1cccnc1)c1nc(-c2ccnc(C(F)(F)F)c2)no1` [Compound 253, (S)-1-(pyridin-3-ylmethyl)-3-(trifluoromethyl)-N-(1-(3-(2-(trifluoromethyl)pyridin-4-yl)-1,2,4-oxadiazol-5-yl)ethyl)-1H-pyrazole-5-carboxamide], with at most 1000 nM.
The same measure for `Cc1cccc(-c2noc([C@H](C)NC(=O)c3cn(C(C)C)nc3C)n2)c1` [Compound 233]: at most 1000 nM.
The same measure for `C[C@H](NC(=O)c1cn(C)nc1C(F)F)c1nc(-c2cccc(F)c2)no1` [Compound 188, (S)-3-(difluoromethyl)-N-(1-(3-(3-fluorophenyl)-1,2,4-oxadiazol-5-yl)ethyl)-1-methyl-1H-pyrazole-4-carboxamide]: 1000 to 20000 nM; for `CC(NC(=O)c1c2c(nn1C)CCCC2)c1nc(-c2cccc(F)c2)no1` (stereo not drawn) [Compound 133]: 1000 to 20000 nM; for `Cc1nn(C(C)C)cc1C(=O)N[C@@H](C)c1nc(-c2ccc(F)cc2)no1` [Compound 90]: 1000 to 20000 nM.
Regarding `Cc1cccc(-c2noc(C(C)NC(=O)c3cc(C)nn3C(F)F)n2)c1` (stereo not drawn) [Compound 33], the IC50 was at most 1000 nM.
For the compound `C[C@H](NC(=O)c1ccnn1CC1CC1)c1nc(-c2ccnc(C3CC3)c2)no1` [Compound 310, 2-(cyclopropylmethyl)-N-[(1S)-1-[3-(2-cyclopropyl-4-pyridyl)-1,2,4-oxadiazol-5-yl]ethyl]pyrazole-3-carboxamide], the 50% inhibitory concentration (IC50) is at most 1000 nM.
Consider `CCOC(=O)N[C@@H](C)c1nc(-c2ccnc(C3CC3)c2)no1` [Compound 274], for which the IC50 is at most 1000 nM.
Turning to `CC(NC(=O)c1cc(C2CC2)nn1C)c1nc(-c2ccc(Cl)cc2)no1` (stereo not drawn) [Compound 9], the IC50 was at most 1000 nM.
The same measure for `C[C@H](NC(=O)c1cn(C)nc1C(F)(F)F)c1nc(-c2cccc(F)c2)no1` [Compound 160]: 1000 to 20000 nM.
Then `CC[C@H](NC(=O)c1cc(C(F)(F)F)nn1C)c1nc(-c2ccnc(C(F)(F)F)c2)no1` [Compound 236, (S)-1-methyl-3-(trifluoromethyl)-N-(1-(3-(2-(trifluoromethyl)pyridin-4-yl)-1,2,4-oxadiazol-5-yl)propyl)-1H-pyrazole-5-carboxamide], with at most 1000 nM.
`Cc1nn(C(C)C)cc1C(=O)N[C@@H](C)c1nc(-c2cccc(C#N)c2)no1` [Compound 85]: the 50% inhibitory concentration (IC50) was at least 20000 nM.
In the case of `C[C@H](NC(=O)c1cc(C(F)(F)F)nn1C(F)F)c1nc(-c2cccc(F)c2)no1` [Compound 127], the 50% inhibitory concentration (IC50) is at most 1000 nM.
For `C[C@H](NC(=O)c1cc(C(F)(F)F)nn1CC(=O)N(C)C)c1nc(-c2ccnc(C3CC3)c2)no1` [Compound 230, (S)—N-(1-(3-(2-cyclopropylpyridin-4-yl)-1,2,4-oxadiazol-5-yl)ethyl)-1-(2-(dimethylamino)-2-oxoethyl)-3-(trifluoromethyl)-1H-pyrazole-5-carboxamide], the 50% inhibitory concentration (IC50) is at most 1000 nM.
For `CC(NC(=O)c1cc(C2CC2)nn1C)c1nc(-c2cccc(F)c2)no1` (stereo not drawn) [Compound 5], the IC50 was at most 1000 nM.
On to `C[C@H](NC(=O)c1cc(C(F)(F)F)nn1Cc1ccncc1)c1nc(-c2ccnc(C(F)(F)F)c2)no1` [Compound 246, (S)-1-(pyridin-4-ylmethyl)-3-(trifluoromethyl)-N-(1-(3-(2-(trifluoromethyl)pyridin-4-yl)-1,2,4-oxadiazol-5-yl)ethyl)-1H-pyrazole-5-carboxamide], for which the half-inhibitory concentration (IC50) is at most 1000 nM.
Consider `CCc1cc(-c2noc([C@H](C)NC(=O)c3cc(C(F)(F)F)nn3C)n2)ccn1` [Compound 268, (S)—N-(1-(3-(2-ethylpyridin-4-yl)-1,2,4-oxadiazol-5-yl)ethyl)-1-methyl-3-(trifluoromethyl)-1H-pyrazole-5-carboxamide], for which the concentration for half-maximal inhibition (IC50) was at most 1000 nM.
The same measure for `Cc1cccc(-c2noc(C(C)NC(=O)c3cc(C)nn3C(C)(C)C)n2)c1` (stereo not drawn) [Compound 11]: 1000 to 20000 nM.
Then `CC(C)[C@@H](NC(=O)c1cc(C2CC2)nn1C)c1nc(-c2cccc(F)c2)no1` [Compound 62], with 1000 to 20000 nM.
Then `C[C@H](NC(=O)c1cc(C(F)F)nn1C)c1nc(-c2ccnc(C3CC3)c2)no1` [Compound 229, (S)—N-(1-(3-(2-cyclopropylpyridin-4-yl)-1,2,4-oxadiazol-5-yl)ethyl)-3-(difluoromethyl)-1-methyl-1H-pyrazole-5-carboxamide], with at most 1000 nM.
In the case of `CN(Cc1nc(-c2ccnc(C3CC3)c2)no1)C(=O)c1cc(C(F)(F)F)nn1C` [Compound 302, N-[[3-(2-cyclopropyl-4-pyridyl)-1,2,4-oxadiazol-5-yl]methyl]-N,2-dimethyl-5-(trifluoromethyl)pyrazole-3-carboxamide], the IC50 was at most 1000 nM.
The same measure for `CC(C)COC(=O)N[C@@H](C)c1nc(-c2ccnc(C3CC3)c2)no1` [Compound 275]: at most 1000 nM; for `CC[C@H](NC(=O)c1cc(C(F)F)nn1C)c1nc(-c2cccc(F)c2)no1` [Compound 120]: at most 1000 nM; for `CC[C@@H](NC(=O)c1cc(C2CC2)nn1C)c1nc(-c2cccc(F)c2)no1` [Compound 61]: at most 1000 nM.
The same measure for `C[C@@H](NC(=O)OC(C)(C)C)c1nc(-c2cccc(F)c2)no1` [Compound 282, tert-butyl (R)-(1-(3-(3-fluorophenyl)-1,2,4-oxadiazol-5-yl)ethyl)carbamate]: 1000 to 20000 nM; for `C[C@H](NC(=O)c1cc(C(F)F)nn1C)c1nc(-c2ccnc(C(F)(F)F)c2)no1` [Compound 238]: at most 1000 nM.
Then `CC[C@H](NC(=O)c1cc(-c2ccccc2)nn1C)c1nc(-c2ccnc(C)c2)no1` [Compound 226, (S)-1-methyl-N-(1-(3-(2-methylpyridin-4-yl)-1,2,4-oxadiazol-5-yl)propyl)-3-phenyl-1H-pyrazole-5-carboxamide], with at most 1000 nM; and `COCc1nn(C)cc1C(=O)N[C@@H](C)c1nc(-c2cccc(F)c2)no1` [Compound 156], with at least 20000 nM; and `Cn1nc(C2CC2)cc1C(=O)NC(C)(C)c1nc(-c2cccc(F)c2)no1` [Compound 50], with 1000 to 20000 nM.

In general, IC50 refers to the concentration that inhibits the measured activity by half.
